Experimental data reported in US11178873B2, “Cyclic N-carboxamide compounds useful as herbicides” (FMC CORPORATION, priority 2015, dated 2021).

Key:
Assay type in all cases: in vivo
kochia (Kochia scoparia) [1] = test: Test A preemergence, kochia; conditions: 0 to 100 scale, 0 no effect, 100 complete control
How it was run: (§1)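 Preemergence treatment was a directed soil spray; postemergence plants were 2 to 10 cm tall at the one- to two-leaf stage. Compounds were formulated in solvent with surfactant and grown in loam/sand in the greenhouse. Injury was scored visually against untreated controls after ~10 d, on a 0 (no effect) to 100 (complete control) scale.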

rice (Oryza sativa) = test: Test B flooded paddy test, rice; conditions: Flood, scale 0 to 100 (0 no effect, 100 complete control), 13 to 15 d
Procedure: (§2) Plant species in the flooded paddy test selected from rice (Oryza sativa), sedge, umbrella (small-flower umbrella sedge, Cyperus difformis), ducksalad (Heteranthera limosa), and barnyardgrass (Echinochloa crus-galli) were grown to the 2-leaf stage for testing. At time of treatment, test pots were flooded to 3 cm above the soil surface, treated by application of test compounds directly to the paddy water, and then maintained at that water depth for the duration of the test. Treated plants and controls were maintained in a greenhouse for 13 to 15 d, after which time all species were compared to controls and visually evaluated. Plant response ratings, summarized in Table B, are based on a scale of 0 to 100 where 0 is no effect and 100 is complete control. A dash (-) response means no test result.

[2] = test system: pigweed (Amaranthus retroflexus); test: Test A postemergence, pigweed; conditions: 0 to 100 scale, 0 no effect, 100 complete control
How it was run: as §1

[3] = test system: ragweed (common ragweed, Ambrosia elatior); test: Test A preemergence, ragweed; conditions: 0 to 100 scale, 0 no effect, 100 complete control
How it was run: as §1

[4] = test system: galium (catchweed bedstraw, Galium aparine); test: Test A postemergence, galium; conditions: 0 to 100 scale, 0 no effect, 100 complete control
How it was run: as §1

[5] = test system: blackgrass (Alopecurus myosuroides); test: Test A postemergence, blackgrass; conditions: 0 to 100 scale, 0 no effect, 100 complete control
How it was run: as §1

[6] = test system: ducksalad (Heteranthera limosa); test: Test B flooded paddy test, ducksalad; conditions: Flood, scale 0 to 100 (0 no effect, 100 complete control), 13 to 15 d
Procedure: as §2

[7] = test system: wheat (Triticum aestivum); test: Test A postemergence, wheat; conditions: 0 to 100 scale, 0 no effect, 100 complete control
How it was run: as §1

[8] = test system: ryegrass, Italian (Italian ryegrass, Lolium multiflorum); test: Test A preemergence, ryegrass, Italian; conditions: 0 to 100 scale, 0 no effect, 100 complete control
How it was run: as §1

[9] = test system: sedge, umbrella (small-flower umbrella sedge, Cyperus difformis); test: Test B flooded paddy test, sedge, umbrella; conditions: Flood, scale 0 to 100 (0 no effect, 100 complete control), 13 to 15 d
Procedure: as §2

[10] = test system: ryegrass, Italian (Italian ryegrass, Lolium multiflorum); test: Test A postemergence, ryegrass, Italian; conditions: 0 to 100 scale, 0 no effect, 100 complete control
How it was run: as §1

[11] = test system: foxtail, giant (giant foxtail, Setaria faberii); test: Test A postemergence, foxtail, giant; conditions: 0 to 100 scale, 0 no effect, 100 complete control
How it was run: as §1

[12] = test system: barnyardgrass (Echinochloa crus-galli); test: Test A preemergence, barnyardgrass; conditions: 0 to 100 scale, 0 no effect, 100 complete control
How it was run: as §1

kochia (Kochia scoparia) [13] = test: Test A postemergence, kochia; conditions: 0 to 100 scale, 0 no effect, 100 complete control
How it was run: as §1

[14] = test system: pigweed (Amaranthus retroflexus); test: Test A preemergence, pigweed; conditions: 0 to 100 scale, 0 no effect, 100 complete control
How it was run: as §1

[15] = test system: ragweed (common ragweed, Ambrosia elatior); test: Test A postemergence, ragweed; conditions: 0 to 100 scale, 0 no effect, 100 complete control
How it was run: as §1

[16] = test system: barnyardgrass (Echinochloa crus-galli); test: Test A postemergence, barnyardgrass; conditions: 0 to 100 scale, 0 no effect, 100 complete control
How it was run: as §1

corn (Zea mays) = test: Test A postemergence, corn; conditions: 0 to 100 scale, 0 no effect, 100 complete control
How it was run: as §1

[17] = test system: barnyardgrass (Echinochloa crus-galli); test: Test B flooded paddy test, barnyardgrass; conditions: Flood, scale 0 to 100 (0 no effect, 100 complete control), 13 to 15 d
Procedure: as §2

[18] = test system: foxtail, giant (giant foxtail, Setaria faberii); test: Test A preemergence, foxtail, giant; conditions: 0 to 100 scale, 0 no effect, 100 complete control
How it was run: as §1

SMILES | Plant response rating, Kochia (kochia (Kochia scoparia) [1]; 31 g ai/ha) | Plant response rating, Kochia (kochia (Kochia scoparia) [1]; 125 g ai/ha) | Plant response rating, Rice (rice (Oryza sativa); 250 g ai/ha) | Plant response rating, Pigweed ([2]; 31 g ai/ha) | Plant response rating, Pigweed ([2]; 125 g ai/ha) | Plant response rating, Ragweed ([3]; 31 g ai/ha) | Plant response rating, Ragweed ([3]; 125 g ai/ha) | Plant response rating, Galium ([4]; 125 g ai/ha) | Plant response rating, Blackgrass ([5]; 125 g ai/ha) | Plant response rating, Wheat ([7]; 125 g ai/ha) | Plant response rating, Ryegrass, Italian ([8]; 125 g ai/ha) | Plant response rating, Ryegrass, Italian ([10]; 125 g ai/ha) | Plant response rating, Foxtail, Giant ([11]; 125 g ai/ha) | Plant response rating, Barnyardgrass ([12]; 125 g ai/ha) | Plant response rating, Kochia (kochia (Kochia scoparia) [13]; 125 g ai/ha) | Plant response rating, Pigweed ([14]; 125 g ai/ha) | Plant response rating, Ragweed ([15]; 125 g ai/ha) | Plant response rating, Barnyardgrass ([16]; 125 g ai/ha) | Plant response rating, Corn (corn (Zea mays); 125 g ai/ha) | Plant response rating, Foxtail, Giant ([18]; 125 g ai/ha) | other results
CN1CC(c2ccc(C(F)(F)F)cc2)N(C(=O)Nc2ccccc2F)C1=O (stereo not drawn) [Compound 13] | 0 | 0 | 0 | 0 | 0 | 0 | 0 | 0 | 0 | 0 | 0 | 0 | 0 | 0 | 0 | 0 | 0 | 0 | 0 | 0 | Plant response rating, Galium ([4]; 31 g ai/ha): 0; Plant response rating, Blackgrass ([5]; 31 g ai/ha): 0; Plant response rating, Ducksalad ([6]; 250 g ai/ha): 70; Plant response rating, Wheat ([7]; 31 g ai/ha): 0; Plant response rating, Ryegrass, Italian ([8]; 31 g ai/ha): 0; Plant response rating, Sedge, Umbrella ([9]; 250 g ai/ha): 0; Plant response rating, Ryegrass, Italian ([10]; 31 g ai/ha): 0; Plant response rating, Foxtail, Giant ([11]; 31 g ai/ha): 0; Plant response rating, Barnyardgrass ([12]; 31 g ai/ha): 0; Plant response rating, Kochia (kochia (Kochia scoparia) [13]; 31 g ai/ha): 0; Plant response rating, Pigweed ([14]; 31 g ai/ha): 0; Plant response rating, Ragweed ([15]; 31 g ai/ha): 0; Plant response rating, Barnyardgrass ([16]; 31 g ai/ha): 0; Plant response rating, Corn (corn (Zea mays); 31 g ai/ha): 0; Plant response rating, Barnyardgrass ([17]; 250 g ai/ha): 10; Plant response rating, Foxtail, Giant ([18]; 31 g ai/ha): 0
O=C1NCC(c2ccc(F)c(F)c2)N1C(=O)Nc1cccc(F)c1F (stereo not drawn) [Compound 11, N-(2,3-difluorophenyl)-5-(3,4-difluorophenyl)-2-oxo-1-imidazolidinecarboxamide] | – | 0 | – | – | 0 | – | 0 | 0 | 0 | 0 | 0 | 0 | 0 | 0 | 0 | 0 | 0 | 0 | 0 | 0 | Plant response rating, Kochia (kochia (Kochia scoparia) [1]; 500 g ai/ha): 30; Plant response rating, Rice (rice (Oryza sativa); 500 g ai/ha): 0; Plant response rating, Pigweed ([2]; 500 g ai/ha): 0; Plant response rating, Ragweed ([3]; 500 g ai/ha): 0; Plant response rating, Galium ([4]; 500 g ai/ha): 0; Plant response rating, Blackgrass ([5]; 500 g ai/ha): 0; Plant response rating, Ducksalad ([6]; 500 g ai/ha): 60; Plant response rating, Wheat ([7]; 500 g ai/ha): 0; Plant response rating, Ryegrass, Italian ([8]; 500 g ai/ha): 30; Plant response rating, Sedge, Umbrella ([9]; 500 g ai/ha): 0; Plant response rating, Ryegrass, Italian ([10]; 500 g ai/ha): 0; Plant response rating, Foxtail, Giant ([11]; 500 g ai/ha): 30; Plant response rating, Barnyardgrass ([12]; 500 g ai/ha): 40; Plant response rating, Kochia (kochia (Kochia scoparia) [13]; 500 g ai/ha): 0; Plant response rating, Pigweed ([14]; 500 g ai/ha): 0; Plant response rating, Ragweed ([15]; 500 g ai/ha): 0; Plant response rating, Barnyardgrass ([16]; 500 g ai/ha): 20; Plant response rating, Corn (corn (Zea mays); 500 g ai/ha): 0; Plant response rating, Barnyardgrass ([17]; 500 g ai/ha): 0; Plant response rating, Foxtail, Giant ([18]; 500 g ai/ha): 80
CN1CC(c2ccc(C(F)(F)F)cc2)N(C(=O)Nc2ccc(F)cc2F)C1=O (stereo not drawn) [Compound 15] | 0 | 0 | 0 | 0 | 0 | 0 | 0 | 0 | 0 | 0 | 0 | 0 | 0 | 0 | 0 | 0 | 0 | 0 | 0 | 0 | Plant response rating, Galium ([4]; 31 g ai/ha): 0; Plant response rating, Blackgrass ([5]; 31 g ai/ha): 0; Plant response rating, Ducksalad ([6]; 250 g ai/ha): 60; Plant response rating, Wheat ([7]; 31 g ai/ha): 0; Plant response rating, Ryegrass, Italian ([8]; 31 g ai/ha): 0; Plant response rating, Sedge, Umbrella ([9]; 250 g ai/ha): 0; Plant response rating, Ryegrass, Italian ([10]; 31 g ai/ha): 0; Plant response rating, Foxtail, Giant ([11]; 31 g ai/ha): 0; Plant response rating, Barnyardgrass ([12]; 31 g ai/ha): 0; Plant response rating, Kochia (kochia (Kochia scoparia) [13]; 31 g ai/ha): 0; Plant response rating, Pigweed ([14]; 31 g ai/ha): 0; Plant response rating, Ragweed ([15]; 31 g ai/ha): 0; Plant response rating, Barnyardgrass ([16]; 31 g ai/ha): 0; Plant response rating, Corn (corn (Zea mays); 31 g ai/ha): 0; Plant response rating, Barnyardgrass ([17]; 250 g ai/ha): 10; Plant response rating, Foxtail, Giant ([18]; 31 g ai/ha): 0
CN1CC(c2cccc(C(F)(F)F)c2)N(C(=O)Nc2ccc(F)cc2F)C1=O (stereo not drawn) [Compound 17] | 0 | 20 | 0 | 0 | 0 | 0 | 0 | 0 | 0 | 0 | 0 | 0 | 10 | 50 | 0 | 0 | 0 | 10 | 0 | 80 | Plant response rating, Galium ([4]; 31 g ai/ha): 0; Plant response rating, Blackgrass ([5]; 31 g ai/ha): 0; Plant response rating, Ducksalad ([6]; 250 g ai/ha): 40; Plant response rating, Wheat ([7]; 31 g ai/ha): 0; Plant response rating, Ryegrass, Italian ([8]; 31 g ai/ha): 0; Plant response rating, Sedge, Umbrella ([9]; 250 g ai/ha): 0; Plant response rating, Ryegrass, Italian ([10]; 31 g ai/ha): 0; Plant response rating, Foxtail, Giant ([11]; 31 g ai/ha): 0; Plant response rating, Barnyardgrass ([12]; 31 g ai/ha): 0; Plant response rating, Kochia (kochia (Kochia scoparia) [13]; 31 g ai/ha): 0; Plant response rating, Pigweed ([14]; 31 g ai/ha): 0; Plant response rating, Ragweed ([15]; 31 g ai/ha): 0; Plant response rating, Barnyardgrass ([16]; 31 g ai/ha): 0; Plant response rating, Corn (corn (Zea mays); 31 g ai/ha): 0; Plant response rating, Barnyardgrass ([17]; 250 g ai/ha): 0; Plant response rating, Foxtail, Giant ([18]; 31 g ai/ha): 50
CN1CC(c2cccc(C(F)(F)F)c2)N(C(=O)Nc2ccccc2F)C1=O (stereo not drawn) [Compound 16] | 0 | 0 | 0 | 0 | 0 | 0 | 0 | 0 | 0 | 0 | 0 | 0 | 10 | 30 | 0 | 0 | 0 | 10 | 0 | 70 | Plant response rating, Galium ([4]; 31 g ai/ha): 0; Plant response rating, Blackgrass ([5]; 31 g ai/ha): 0; Plant response rating, Ducksalad ([6]; 250 g ai/ha): 0; Plant response rating, Wheat ([7]; 31 g ai/ha): 0; Plant response rating, Ryegrass, Italian ([8]; 31 g ai/ha): 0; Plant response rating, Sedge, Umbrella ([9]; 250 g ai/ha): 0; Plant response rating, Ryegrass, Italian ([10]; 31 g ai/ha): 0; Plant response rating, Foxtail, Giant ([11]; 31 g ai/ha): 0; Plant response rating, Barnyardgrass ([12]; 31 g ai/ha): 0; Plant response rating, Kochia (kochia (Kochia scoparia) [13]; 31 g ai/ha): 0; Plant response rating, Pigweed ([14]; 31 g ai/ha): 0; Plant response rating, Ragweed ([15]; 31 g ai/ha): 0; Plant response rating, Barnyardgrass ([16]; 31 g ai/ha): 0; Plant response rating, Corn (corn (Zea mays); 31 g ai/ha): 0; Plant response rating, Barnyardgrass ([17]; 250 g ai/ha): 0; Plant response rating, Foxtail, Giant ([18]; 31 g ai/ha): 30
